Publication PMC8080350, “Rhodanine-3-acetamide derivatives as aldose and aldehyde reductase inhibitors to treat diabetic complications: synthesis, biological evaluation, molecular docking and simulation studies” (BMC Chemistry, 2021)
Read-outs that look alike come from different tables or passages of the source.

What was measured:
aldose reductase (ALR2) = molecular target: T1, aldose reductase (ALR2) (Bos taurus, UniProt P16116); assay: ALR2 enzyme inhibition assay; format: biochemical, calf; details: for IC50: substrate D,L-glyceraldehyde, cofactor NADPH, pH 6.2, 340 nm, read-out: ALR2 IC50 ± SEM
T1 construct: The enzyme aldose reductase was extracted from calf lenses; from tissue; host or cells: calf lenses
Method: (§1) The newly synthesized of 5-benzylidene rhodanine-3-acetamide derivatives 3(a–g) were evaluated for in vitro enzyme inhibitory potential on aldehyde and aldose reductase enzymes. […] IC50 ± SEM (µM) values were calculated for the compounds showing more than 50% inhibition against both the isozymes, (Table 1).
(§2) All required chemicals used in the enzyme extraction procedure were of high analytical grade. Enzyme inhibitory assay was performed on ELISA microplate reader at 340 nm and 96 well-plates were used for the sample analysis. Micropipettes from Gilson were used for sample loading. Sodium-D-glucoronate and D,L-glyceraldehyde were used as substrates along with a cofactor i.e. NADPH (nicotinamide adenine dinucleotide phosphate) from Sigma Aldrich.
The enzyme aldose reductase was extracted from calf lenses. 200–300 g lenses were added to triple volume of cold water and homogenized for 20 min. The homogenate was then centrifuged at 10,000 rpm for 15 min at 4 °C. The insoluble precipitates were discarded and the supernatant was saturated with 70% ammonium sulfate and after centrifugation at 10,000 rpm at 4 °C for 15 min the supernatant was dialyzed overnight and the protein contents was calculated via Bradford method and the crude aldose reductase was stored at −80 °C [31].
The assay was performed on ELISA (Bio-Tek ELx800™ Instrument, Inc. USA) based spectrophotometric analysis in 96 well plate. The assay mixture was composed of 20 µL buffer (100 mM potassium dihydrogen phosphate pH 6.2), 10 µL test compound (1 mM), 70 µL enzyme and incubated for 10 min at 37 °C followed by addition of 40 µL substrate (D,L-glyceraldehyde 50 mM for ALR2) and 50 µL NADPH (0.5 mM) (nicotinamide adenine dinucleotide phosphate) as a co-factor. After 30 min incubation optical density was measured at 340 nm.
(§3) Results were analyzed by graph pad prism® software to calculate IC50 and percentage inhibition was calculated by the following formula.
(§4) % Inhibition = […].

[1] = molecular target: aldehyde reductase (ALR1) (Ovis aries, UniProt A0ACI6RLT8); assay: ALR1 enzyme inhibition assay; format: biochemical, lamb; details: for selectivity towards ALR1 over ALR2: from IC50 values on ALR1 and ALR2
Method: as §1, §2
Aldehyde reductase enzyme was extracted from lamb kidney and the cortical part was separated carefully. The cortex was homogenized in triple volume of extraction buffer (2.0 mM EDTA, 0.25 M sucrose, 10 mM sodium phosphate and 2.5 mM β-mercaptoethanol at pH 7.2). The homogenate was centrifuged at 12,000 rpm at 4 °C for 30 min, the insoluble precipitates were discarded and the supernatant was saturated with 40%, 50% and 75% ammonium sulfate respectively and after each addition the solution was centrifuged at 12,000 rpm at 4 °C for 30 min, each time the pallet was discarded and for the last saturation the supernatant was taken and dialyzed overnight in extraction buffer. Next day the protein content was calculated via Bradford method and the crude aldehyde reductase was stored at − 80 °C [30].
The assay was performed on ELISA (Bio-Tek ELx800TM Instrument, Inc. USA) based spectrophotometric analysis in 96 well plate. The assay mixture was composed of 20 µL buffer (100 mM potassium dihydrogen phosphate pH 6.2), 10 µL test compound (1 mM), 70 µL enzyme and incubated for 10 min at 37 °C followed by addition of 40 µL Glucoronate 50 mM (as a substrate) and 50 µL (0.5 mM) NADPH (nicotinamide adenine dinucleotide phosphate) as a co-factor. After 30 min incubation optical density was measured at 340 nm.
as §3, §4

[2] = substrate sodium D-glucuronate, cofactor NADPH, pH 6.2, 340 nm, read-out: ALR1 IC50 ± SEM

Sequence of aldehyde reductase (ALR1) (A0ACI6RLT8 entry or part of it): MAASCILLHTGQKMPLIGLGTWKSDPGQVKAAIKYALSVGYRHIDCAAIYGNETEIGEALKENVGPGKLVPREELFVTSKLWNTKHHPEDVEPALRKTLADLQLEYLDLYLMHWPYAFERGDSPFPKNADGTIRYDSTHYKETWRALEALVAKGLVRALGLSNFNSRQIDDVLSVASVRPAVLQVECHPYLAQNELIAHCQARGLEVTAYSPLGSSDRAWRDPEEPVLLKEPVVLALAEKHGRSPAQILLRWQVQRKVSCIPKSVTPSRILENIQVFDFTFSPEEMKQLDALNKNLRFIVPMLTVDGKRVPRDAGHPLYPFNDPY

IC50 (aldose reductase (ALR2))	IC50 [1, 2]	melting point	selectivity towards ALR2 over ALR1 (aldose reductase (ALR2); from IC50 values on ALR1 and ALR2)	Molecule	selectivity towards ALR1 over ALR2 [1]	IC50 [1]
0.25 ± 0.04 µM	5.38 ± 0.07 µM	–	–	COc1cc(/C=C2\SC(=S)N(CC(=O)Nc3ccccc3)C2=O)ccc1O [Compound 3a, (Z)-5-(4-hydroxy-3-methoxybenzylidene)-3-(2-anilino-2-oxoethyl)-2-thioxothiazolidin-4-one]	–	–
6.38 ± 0.01 µM	2.38 ± 0.02 µM	–	–	COc1cc(/C=C2\SC(=S)N(CC(=O)Nc3ccc(C(=O)O)c(O)c3)C2=O)ccc1O [Compound 3c, 2-Hydroxy-4-({[(Z)-5-(4-hydroxy-3-methoxybenzylidene)-4-oxo-2-thioxo-1,3-thiazolidin-3-yl]acetyl}amino)benzoic acid]	–	–
7.36 ± 0.02 µM	3.76 ± 0.09 µM	217 to 219 °C	–	COc1cc(/C=C2\SC(=S)N(CC(=O)Nc3ccc(C(=O)O)cc3)C2=O)ccc1O [Compound 3d, 4-({[(Z)-5-(4-hydroxy-3-methoxybenzylidene)-4-oxo-2-thioxo-1,3-thiazolidin-3-yl]acetyl}amino)benzoic acid]	more selective and potent inhibitors of ALR1	–
12.71 ± 0.09 µM	2.87 ± 0.01 µM	190 to 192 °C	–	COc1ccc(/C=C2\SC(=S)N(CC(=O)Nc3ccccc3)C2=O)cc1 [Compound 3e, (Z) 5-(4-methoxybenzylidene)-3-(2-anilino-2-oxoethyl)-2-thioxothiazolidin-4-one]	more selective and potent inhibitors of ALR1	–

Second part, the molecule before the results:

Molecule	IC50 (aldose reductase (ALR2))	IC50 [1, 2]	melting point	selectivity towards ALR2 over ALR1 (aldose reductase (ALR2); from IC50 values on ALR1 and ALR2)	selectivity towards ALR1 over ALR2 [1]	IC50 [1]
COc1cc(/C=C2\SC(=S)N(CC(=O)N3CCOCC3)C2=O)ccc1O [Compound 3b, (Z)-5-(4-hydroxy-3-methoxybenzylidene)-3-(2-morpholino-2-oxoethyl)-2-thioxothiazolidin-4-one]	19.2 ± 0.08 µM	6.07 ± 0.05 µM	211 to 213 °C	–	–	–
COc1ccc(/C=C2\SC(=S)N(CC(=O)N3CCOCC3)C2=O)cc1 [Compound 3f, (Z) 5-(4-methoxybenzylidene)-3-(2-morpholino-2-oxoethyl)-2-thioxothiazolidin-4-one]	0.12 ± 0.01 µM	2.18 ± 0.03 µM	203 to 205 °C	selective towards ALR2	–	–
CC1=C(CC(=O)O)c2cc(F)ccc2/C1=C\c1ccc([S+](C)[O-])cc1 (centres unmarked) [Sulindac, reference compound]	0.29 ± 0.08 µM	–	–	–	–	–
CCCC(CCC)C(=O)O [Valproic acid, reference compound]	–	–	–	–	–	57.4 ± 0.89 µM
(Z) 5-(4-hydroxy-3-methoxybenzylidene)-3-(2-pyrrolidino-2-oxoethyl)-2-thioxothiazolidin-4-one [Compound 3g]	2.42 ± 0.03 µM	2.22 ± 0.04 µM	–	–	–	–
